Measurements reported in patent US8178727B2, “Bis(arylmethylidene)acetone compound, anti-cancer agent, carcinogenesis-preventive agent, inhibitor of expression of Ki-Ras, ErbB2, c-Myc and Cycline D1, β-catenin-degrading agent, and p53 expression enhancer” (National University Corporation Tohoku University, priority 2005, dated 2012).
One block for each compound: values may come before it.

What was measured:
β-catenin = experiment: Western blot of β-catenin degrading activity; format: cell-based, human; settings: FIG. 9
Method: Western-blot analysis was used to investigate effects on the expression of oncogene products, ErbB2, c-Myc, and Cyclin D1, whose activity is enhanced in a variety of cancer cells, and to investigate the activity of degrading β-catenin, which plays an important role in the initial stages of carcinogenesis to the formation and development of tumors.
(§1) Western-blot analysis was performed in the following manner:
(§2) After HCT116 cells were treated with each test compound, plate-adhered cells were recovered along with cells suspended in supernatants, centrifuged, and pelleted. The cells were then lysed with a lysis solution (40 mM Tris-HCl, 1% Triton X-100, 2 mM MgCl2) supplemented with 200-μM phenylmethanesulfonyl fluoride (PMSF), 500-μM benzamidine, and 1-μg/mL leupeptin. After the mixture was allowed to stand on ice for 30 minutes, it was centrifuged for 10 minutes at 4° C. and 10000×g, and supernatants were recovered. To the resultant supernatant was added equimolarly 2× sample buffer (0.1 M Tris-HCl (pH 6.8), 4% SDS, 20% glycerol, and 12% β-mercaptoethanol), and the mixture was shaken for 3 minutes at 4° C., then heated to 95° C. for 4 minutes, and then stored at −20° C. until use. The cell lysates were phoresed on 8% SDS-PAGE, transferred to a Hybond-P membrane (Amersham Biosciences), and made to react with various monoclonal antibodies described below.
(§3) Monoclonal antibodies: anti-actin antibody (A2066, Sigma Aldrich), anti-β-catenin antibody (6101 53, BD-transduction Laboratories), anti-p53 antibody (FL393: sc-6243HRP), anti-cyclin D1 antibody (M-20: sc-718), anti-c-Myc antibody (9E10: sc-40), anti-k-Ras-2B antibody (C-19: sc-521), and anti-c-ErbB2 antibody (A0485, DAKO Cytomation).

[1] = system: cell lines derived from stomach, lung, breast, ovarian, prostate, pancreatic, bile duct, thyroid cancer and melanoma; experiment: Growth inhibition compared with 5-FU, CPT11, CDDP in cell lines of other cancers (FIG. 6); format: cell-based, human; settings: cell lines from a variety of other cancers
Method: (§4) The inhibitory efficacy of bis(arylmethylidene)-acetones on the development and growth of malignant tumor cells was examined. Curcumin and bis(arylmethylidene)-acetone compounds were dissolved in DMSO to obtain 50 mM compound solutions for storage. Sixteen human cancer cell lines (HCT116, DLD-1, SW620. LK87, PC3, MCF7, PK9, HuCCT-1, SH10TC, GCIY, G361, 8505c, HepG2, A431, ACHN, OVK18) were obtained from the Medical Cellular Resources Center of the Institute of Development, Aging, and Cancer at Tohoku University, Japan. These cells were cultured at 37° C. under 5% CO2 conditions using as a culture medium RPMI1640 (Sigma Aldrich) supplemented with 10% fetal bovine serum and kanamycin (Wako Pure Chemical Industries: final concentration, […]).
(§5) Each cell line was placed on a 96-well microtiter plate at a cell density of 2500 to 5000 cells/100 μL/well in accordance with the growth rate of the cell line. After cell cultivation for 24 hours, […] medium containing each compound was added. The final concentration of each test compound is 0, 0.1, 0.25, 0.5, 1, 2.5, 5, 10, 25, 50, and 100 μM (11 levels). The maximum final concentration of DMSO used as a solvent was 1%. […] Thereafter, each optical absorbance at 450 nm (620 nm background) was measured with an MPR-A4i microplate reader (Tosoh, Japan). A curve of the inhibition of cell growth was constructed using the measured optical absorbances. […]

colon-cancer cells = experiment: Growth inhibition compared with anti-cancer agents 5-FU, CPT11, CDDP (FIG. 6); format: cell-based, human
Method: as §4
(§6) Each cell line was placed on a 96-well microtiter plate at a cell density of 2500 to 5000 cells/100 μL/well in accordance with the growth rate of the cell line. After cell cultivation for 24 hours, […] medium containing each compound was added. The final concentration of each test compound is 0, 0.1, 0.25, 0.5, 1, 2.5, 5, 10, 25, 50, and 100 μM (11 levels). The maximum final concentration of DMSO used as a solvent was 1%. After culturing for 96 hours, the medium was aspirated away, followed by washing with PBS. Next, 100 μL of a medium containing a solution of Cell Counting Kit 8 at 1/10 (v/v) was added. Culturing was then continued for one hour. Thereafter, each optical absorbance at 450 nm (620 nm background) was measured with an MPR-A4i microplate reader (Tosoh, Japan). A curve of the inhibition of cell growth was constructed using the measured optical absorbances.
Stored solutions of three anti-cancer agents: 5-FU, CDDP, and CPT11, prepared beforehand (1 mM), were suitably diluted prior to use, and also added to culture media.

[2] = system: A431, ACHN, and HepG2 cells; experiment: Growth inhibition compared with conventional anti-cancer agents (FIG. 6); format: cell-based, human
Method: as §4, §5

HCT116 cells = experiment: Cell growth inhibition (Cell Counting Kit 8, Wst-8), 96 h exposure; format: cell-based; settings: Homo sapiens, HCT-116, HCT116 colon cancer cells
Method: as §4
(§7) Three human colon-cancer cell lines (DLD-1, HCT116, SW620) were used in screening for cell growth inhibitory efficacy. The test compounds (bis(arylmethylidene)-acetones) were added to the culture media at the target concentrations, and exposure to the compounds was then continued for 96 hours in order to investigate not only acute cell damages but also effects on the cells, involving intracellular metabolic responses and others. The cell growth inhibitory efficacy was then evaluated with Cell Counting Kit 8 (Wst-8 Test, Dojindo Laboratories, Japan). In this analysis method, tetrazolium salt Wst-8 is degraded by reduced form nicotinamide adenine dinucleotide (nicotinamide adenine dinucleotide H; NADH). The activity of NADH is maintained only inside viable cells, and Wst-8 becomes colored upon degradation. The optical absorbance at 450 nm is measured, whereby the number of viable cells can be indirectly estimated.
as §6

SW620 cells = experiment: as above; format: cell-based; settings: Homo sapiens, SW-620, SW620 colon cancer cells
Method: as §4, §7, §6

DLD-1 cells = experiment: as above; format: cell-based; settings: Homo sapiens, DLD-1 colon cancer cells
Method: as §4, §7, §6

[3] = system: primary cultured hepatic cells (hNHeps); experiment: Toxicity test on normal cells; format: cell-based; settings: FIG. 13
C57BL/6J mice = experiment: In vivo toxicity, mixed feed in high-fat diet; set-up: species or system mouse; settings: oral, 0.1% (w/w) in high-fat diet HFD35, 5 mg/day, more than 120 days
Method: The synthetic compounds of the present invention are derived from curcumin, which is originally a food item. […] As a further test for in vivo toxicity, inbred C57BL/6J mice received daily an oral intake of 5 g of mixed feed (test compound dose: 5 mg/day) wherein each test compound was admixed at 0.1% (weight/weight) with a high-fat diet (HFD35, CLEA Japan).

Apc580D mice = experiment: Survival in familial adenomatous polyposis mouse model; format: in vivo
Excerpt: Familial adenomatous polyposis (FAP) is the most appropriate model for considering the multistage process of carcinogenesis in colon cancer. The APC gene is a causative gene in this illness. This gene is a tumor suppressor gene and is linked to the degradation of the β-catenin gene product. The FAP mouse model Aoc580D (Apc580D/+mice, wherein a mutation was introduced into the mouse Apc gene by homologous genetic recombination) is heterozygous for a genetic mutation in which codon 580 of the APC gene is a stop codon (i.e., the Apc gene product is truncated at codon 580). These mice present hundreds of polyps in the gastrointestinal tract in the same manner as human FAP. […] Reference: Shibata H. et al., Science, 278, pp. 120-123 “Rapid colorectal adenoma formation initiated by conditional targeting of the Apc gene,” 1997.
Analysis was performed on therapeutic models (in which administration was initiated around the age of 8 weeks, when polyposis had already been observed) and prophylactic models (in which administration was initiated around the age of 4 weeks, when polyposis had not been observed) of carcinogenesis in the colon. Apc580D mice (2 animals) given daily an oral intake of HFD35 alone at a dose of 5 g were used as a control.

p53 = experiment: Western blot of p53 gene product expression; format: cell-based, human; settings: FIG. 11
Method: as §1, §2, §3
Curcumin is known to have activity in degrading p53 gene products. Degradation, genetic expression reduction, instability, or other deficiencies of the tumor suppressor gene p53 gene products, result in disadvantageous conditions as concerns cell malignancy and tendency to become cancerous.

Structure (SMILES): O=C(/C=C/c1cc(O)cc(O)c1)/C=C/c1cc(O)cc(O)c1 (hydrate or solvate) [GO-Y038, (1E,4E)-1,5-bis-(3,5-dihydroxyphenyl)penta-1,4-dien-3-one]
melting point: 298 to 300 °C (dec.)

Structure (SMILES): COc1cc(Br)cc(/C=C/C(=O)/C=C/c2cc(Br)cc(OC)c2)c1 [GO-033, (1E,4E)-1,5-bis-(3-bromo-5-methoxyphenyl)penta-1,4-dien-3-one]
melting point: 181 to 183 °C

Structure (SMILES): O=C(/C=C/c1ccc2ccccc2c1)/C=C/c1ccc2ccccc2c1 [GO-Y011, (1E,4E)-1,5-dinaphthalen-2-yl-penta-1,4-dien-3-one]
melting point: 244 to 246 °C

Structure (SMILES): COc1ccc(/C=C/C(=O)/C=C/c2ccc(OC)c(O)c2)cc1O [GO-Y023, (1E,4E)-1,5-bis-(3-hydroxy-4-methoxyphenyl)penta-1,4-dien-3-one]
melting point: 195 to 197 °C

Structure (SMILES): COc1cc(/C=C/C(=O)/C=C/c2cc(OC)c(O)c(OC)c2)cc(OC)c1O [GO-Y026, (1E,4E)-1,5-bis-(4-hydroxy-3,5-dimethoxyphenyl)penta-1,4-dien-3-one]
melting point: 166 to 168 °C

Structure (SMILES): COCOc1c(OC)cc(/C=C/C(=O)/C=C/c2cc(OC)c(OCOC)c(OC)c2)cc1OC [GO-Y031, (1E,4E)-1,5-bis-(3,5-dimethoxy-4-methoxymethoxyphenyl)penta-1,4-dien-3-one]
concentration at which β-catenin degrading activity is displayed (β-catenin): 1 µM
β-catenin-degrading activity compared with BDMPP (β-catenin): equal to or greater than that of BDMPP
anti-cancer activity relative to 5-FU, CPT11, and CDDP [1]: strong anti-cancer activity
cytotoxicity to normal cells [3]: non-cytotoxic
growth inhibition on normal cells [3]: no growth inhibition was observed
bodily abnormalities including weight loss (C57BL/6J mice): No bodily abnormalities, including weight loss, were observed
average survival, anti-carcinogenically prophylactic model (still alive) (Apc580D mice; oral 5 mg/day in HFD35, started around 4 weeks of age): ≥ 110.0 days
survival time, therapeutic model (Apc580D mice; oral 5 mg/day in HFD35, started around 8 weeks of age, average where several mice): 148.0 days
expression of p53 after 30 hours (p53): enhanced expression of p53
transient drop in expression of p53 6 to 12 hours after administration (p53): not seen
growth inhibitory activity relative to 5-FU, CPT11 and CDDP (colon-cancer cells): much stronger
effect relative to conventional anti-cancer agents [2]: do not exert biological effects surpassing conventional anti-cancer agents
IC50 (HCT116 cells): 250 nM
IC50 (SW620 cells): 500 nM
IC50 (DLD-1 cells): 250 nM

Structure (SMILES): C#CCOc1c(OC)cc(/C=C/C(=O)/C=C/c2cc(OC)c(OCC#C)c(OC)c2)cc1OC [GO-Y048, (1E,4E)-1,5-bis-(3,5-dimethoxy-4-prop-2-ynyloxyphenyl)penta-1,4-dien-3-one]
melting point: 162 to 164 °C

Structure (SMILES): COc1cc(/C=C/C(=O)/C=C/c2cc(OC)c(OCCN=[N+]=[N-])c(OC)c2)cc(OC)c1OCCN=[N+]=[N-] [GO-Y065, (1E,4E)-1,5-bis-[4-(2-azidoethoxy)-3,5-dimethoxyphenyl]penta-1,4-dien-3-one]
melting point: 107 to 109 °C

Second part, led by results:

IC50 (HCT116 cells): 250 nM
IC50 (SW620 cells): 200 nM
IC50 (DLD-1 cells): 250 nM
Structure (SMILES): COc1cc(/C=C/C(=O)/C=C/c2cc(OC)c(OC)c(OC)c2)cc(OC)c1OC [GO-Y016, (1E,4E)-1,5-bis-(3,4,5-trimethoxyphenyl)penta-1,4-dien-3-one]
β-catenin-degrading activity compared with BDMPP (β-catenin): not
anti-cancer activity relative to 5-FU, CPT11, and CDDP [1]: strong anti-cancer activity
growth inhibitory activity relative to 5-FU, CPT11 and CDDP (colon-cancer cells): much stronger
effect relative to conventional anti-cancer agents [2]: do not exert biological effects surpassing conventional anti-cancer agents

melting point: 61 to 63 °C
Structure (SMILES): COCCOCOc1c(OC)cc(/C=C/C(=O)/C=C/c2cc(OC)c(OCOCCOC)c(OC)c2)cc1OC [GO-Y039, (1E,4E)-1,5-bis-(3,5-dimethoxy-4-methoxyethoxymethoxyphenyl)penta-1,4-dien-3-one]

melting point: 133 to 135 °C
Structure (SMILES): COc1cc(/C=C/C(=O)/C=C/c2cc(OC)c(OCCO)c(OC)c2)cc(OC)c1OCCO [GO-Y044, (1E,4E)-1,5-bis-[4-(2-hydroxyethoxy)-3,5-dimethoxyphenyl]penta-1,4-dien-3-one]

melting point: 118 to 120 °C
Structure (SMILES): C#CCOc1c(OC)cc(/C=C/C(=O)/C=C/c2cc(OC)c(OC)c(OC)c2)cc1OC [GO-Y060, (1E,4E)-1-(3,5-dimethoxy-4-prop-2-ynyloxyphenyl)-5-(3,4,5-trimethoxyphenyl)penta-1,4-dien-3-one]
